Laboratory results reported in ChEMBL document CHEMBL1201862, “PubChem BioAssay data set” (2004).
Blank lines part the entries; values can stand above or below the compound they belong to. The source made the active and inactive calls.

Tests used:
Ephrin type-A receptor 4 = Ephrin type-A receptor 4 (Mus musculus, UniProt Q03137); experiment: EphA4 ligand-binding antagonists – biochemical, colorimetric, mouse EphA4, primary screen (AID 689); type: functional
[1] = molecular target: T1, Polyadenylate-binding protein 1 (Homo sapiens, UniProt P11940); experiment: MLLE domain peptide-binding blockers, IC50 – biochemical, fluorescence polarization, FITC-PAM2 peptide, dose response (AID 602259); type: functional; conditions: read-out: IC50_Mean
T1 sequence (P11940 whole entry, the tested form may be a part): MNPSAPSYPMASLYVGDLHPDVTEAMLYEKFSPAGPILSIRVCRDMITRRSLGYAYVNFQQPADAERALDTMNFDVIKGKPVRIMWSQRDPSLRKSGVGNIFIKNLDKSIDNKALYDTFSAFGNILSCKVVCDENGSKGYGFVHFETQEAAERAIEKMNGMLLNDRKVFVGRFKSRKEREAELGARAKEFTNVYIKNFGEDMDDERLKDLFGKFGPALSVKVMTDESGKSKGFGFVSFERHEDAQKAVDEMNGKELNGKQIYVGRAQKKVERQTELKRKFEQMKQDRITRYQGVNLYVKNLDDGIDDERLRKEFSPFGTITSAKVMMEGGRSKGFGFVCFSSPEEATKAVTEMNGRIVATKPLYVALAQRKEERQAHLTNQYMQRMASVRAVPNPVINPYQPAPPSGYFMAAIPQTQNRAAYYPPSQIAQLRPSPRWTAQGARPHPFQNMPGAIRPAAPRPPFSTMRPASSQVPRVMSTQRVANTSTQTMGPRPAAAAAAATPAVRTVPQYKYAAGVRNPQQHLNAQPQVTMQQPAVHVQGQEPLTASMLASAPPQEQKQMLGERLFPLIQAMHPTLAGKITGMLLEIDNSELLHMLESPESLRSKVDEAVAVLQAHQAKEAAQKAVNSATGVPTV

[2] = molecular target: T1, Polyadenylate-binding protein 1; experiment: MLLE binding blockers, Cy5 peptide tracer – biochemical, fluorescence polarization, Cy5-PAM2 peptide, secondary, miRNA deadenylation inhibitor project, dose response (AID 602260); type: functional; conditions: read-out: IC50_Mean
[3] = molecular target: Glutathione-S-transferase (Schistosoma japonicum, UniProt Q26513); experiment: GST-antibody interaction or FRET quenching – biochemical, TR-FRET, artefact control for Vif-APOBEC3G degradation inhibitor project, dose response (AID 1117362); type: functional
Chain of Glutathione-S-transferase (Q26513 whole entry): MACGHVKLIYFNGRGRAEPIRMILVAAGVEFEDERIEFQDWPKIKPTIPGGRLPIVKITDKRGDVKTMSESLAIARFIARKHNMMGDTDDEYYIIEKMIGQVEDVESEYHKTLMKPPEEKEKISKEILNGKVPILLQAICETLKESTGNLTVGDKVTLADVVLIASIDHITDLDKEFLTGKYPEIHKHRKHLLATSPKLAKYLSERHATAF

[4] = molecular target: T2, Low molecular weight phosphotyrosine protein phosphatase (Homo sapiens, UniProt P24666); type: functional; conditions: read-out: IC50_Mean;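 note: Dose-response confirmation assay measuring inhibition of LMPTP enzyme activity by fluorescence intensity read-out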
T2 sequence (P24666 whole entry): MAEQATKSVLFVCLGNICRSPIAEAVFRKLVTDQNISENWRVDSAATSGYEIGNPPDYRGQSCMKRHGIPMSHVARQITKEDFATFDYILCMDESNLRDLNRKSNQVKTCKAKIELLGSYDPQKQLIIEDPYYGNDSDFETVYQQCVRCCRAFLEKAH

[5] = molecular target: G-protein coupled receptor 183 (Homo sapiens, UniProt P32249); experiment: SAR confirmation of small molecule antagonists of the EBI2 receptor via a luminescent beta-arrestin assa.; type: functional
Chain of G-protein coupled receptor 183 (P32249 whole entry): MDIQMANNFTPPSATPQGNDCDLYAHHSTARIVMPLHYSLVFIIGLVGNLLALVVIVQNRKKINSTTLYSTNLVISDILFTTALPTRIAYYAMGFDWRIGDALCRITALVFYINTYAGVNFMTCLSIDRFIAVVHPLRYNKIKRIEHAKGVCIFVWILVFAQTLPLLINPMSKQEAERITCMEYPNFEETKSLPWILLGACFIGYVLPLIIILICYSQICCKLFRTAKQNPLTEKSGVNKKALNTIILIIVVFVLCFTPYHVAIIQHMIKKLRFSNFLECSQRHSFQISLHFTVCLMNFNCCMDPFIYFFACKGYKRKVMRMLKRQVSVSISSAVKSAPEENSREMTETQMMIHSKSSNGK

[6] = Potency on glucagon-like peptide 1 release, dose-response in NCI-H716 cell line, half maximal inhibitory concentration (AID 1117344); type: functional, cell-based
[7] = IC50 of insulin release inhibition, rat insulinoma INS-1E line, 5 mM glucose, cell-based (AID 1117331); type: functional
[8] = glucagon-like peptide-1 release potency in STC-1, concentration-response, half-maximal inhibitory concentration in the STC-1 line (AID 1117345); type: functional, cell-based
[9] = inhibition of ADAM10 peptide cleavage – biochemical, FRET peptide substrate, recombinant human ADAM10, selectivity assay for ADAM17 exosite inhibitor project, dose response (AID 743259);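 note: ADAM10 enzyme cleaving a FRET peptide substrate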
[10] = molecular target: Disintegrin and metalloproteinase domain-containing protein 17 (Homo sapiens, UniProt P78536); experiment: exosite inhibitors of ADAM17, dose response, biochemical (AID 743260)
Chain of Disintegrin and metalloproteinase domain-containing protein 17 (P78536 whole entry, the tested form may be a part): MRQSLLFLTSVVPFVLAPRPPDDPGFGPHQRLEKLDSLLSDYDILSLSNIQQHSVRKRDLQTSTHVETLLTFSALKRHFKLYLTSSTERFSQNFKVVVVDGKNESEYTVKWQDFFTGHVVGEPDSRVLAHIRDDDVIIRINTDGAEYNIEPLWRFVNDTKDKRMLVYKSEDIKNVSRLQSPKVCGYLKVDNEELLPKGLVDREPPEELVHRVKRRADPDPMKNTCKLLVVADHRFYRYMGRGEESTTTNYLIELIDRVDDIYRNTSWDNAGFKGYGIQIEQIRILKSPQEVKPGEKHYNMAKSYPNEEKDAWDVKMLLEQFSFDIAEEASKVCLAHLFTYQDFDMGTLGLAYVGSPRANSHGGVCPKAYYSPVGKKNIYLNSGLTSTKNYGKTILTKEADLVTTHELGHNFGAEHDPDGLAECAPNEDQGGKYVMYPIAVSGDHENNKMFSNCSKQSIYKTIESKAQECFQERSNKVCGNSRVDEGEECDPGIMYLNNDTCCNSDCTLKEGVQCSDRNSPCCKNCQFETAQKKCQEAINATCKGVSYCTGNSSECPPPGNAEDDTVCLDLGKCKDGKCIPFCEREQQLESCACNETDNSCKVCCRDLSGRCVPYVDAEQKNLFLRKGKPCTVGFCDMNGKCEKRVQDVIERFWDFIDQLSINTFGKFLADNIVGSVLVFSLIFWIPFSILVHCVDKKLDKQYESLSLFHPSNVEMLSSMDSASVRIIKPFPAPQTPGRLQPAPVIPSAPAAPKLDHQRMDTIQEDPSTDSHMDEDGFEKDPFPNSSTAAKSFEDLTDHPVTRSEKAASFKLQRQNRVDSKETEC

[11] = cytotoxicity in MITF-independent A375 cells – cell-based, CellTiter-Glo luminescence, dry powder, set 4, counter-screen for MITF inhibitor project, dose response (AID 624364); type: functional; conditions: A-375;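 note: A375 melanoma cells are MITF independent so this is a counter screen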
[12] = viability loss in MITF-independent A375 cells – cell-based, CellTiter-Glo luminescence, dry powder, set 2, counter-screen for MITF inhibitor project, dose response (AID 624489); type: functional; conditions: A-375;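 note: actives are compounds lowering A375 viability meaning general cytotoxicity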
[13] = MITF: Counter assay: A375 proliferation Measured in Cell-Based System Using Plate Reader - 2084-03_Inhibitor_Dose_DryPowder_Activity_Set8.; type: functional; conditions: A-375
[14] = inhibitors of TRPM1-promoter reporter in SK-MEL-5 – cell-based, luciferase, dry powder, set 8, MITF inhibitor project, dose response (AID 624430); type: functional
[15] = MITF Orthogonal Assay: SK-MEL-5 CTG Assay Measured in Cell-Based System Using Plate Reader - 2084-02_Inhibitor_Dose_DryPowder_Activity_Set7.; type: functional
[16] = HEK293 Cytotoxicity Assay Measured in Cell-Based System Using Plate Reader - 7071-01_Inhibitor_Dose_CherryPick_Activity_Set2.; type: functional
HEK293 = experiment: viability loss in HEK293T cells – cell-based, ATP luminescence, cherry-pick samples, cytotoxicity control, dose response (AID 687005); type: functional; conditions: Homo sapiens;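 note: cells exposed to compound for 48 hours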
Bcl-2-related protein A1 [17] = molecular target: T3, Bcl-2-related protein A1 (Mus musculus, UniProt Q07440); experiment: small-molecule antagonists of Bfl-1/BH3 interaction – biochemical, TR-FRET, mouse Bfl-1, confirmation (AID 621);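 note: TR-FRET binding of GST-Bfl-1 to FITC-labelled Bid peptide via terbium antibody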
T3 sequence (Q07440 whole entry): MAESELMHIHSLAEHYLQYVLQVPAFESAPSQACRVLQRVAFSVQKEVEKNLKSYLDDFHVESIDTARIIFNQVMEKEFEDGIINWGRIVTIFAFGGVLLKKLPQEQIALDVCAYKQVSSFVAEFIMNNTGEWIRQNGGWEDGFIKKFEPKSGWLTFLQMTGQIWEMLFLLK

Bcl-2-related protein A1 [18] = molecular target: T3, Bcl-2-related protein A1; experiment: Bfl-1 binding inhibitors, SAR follow-up, biochemical, fluorescence polarization (AID 1070)
[19] = molecular target: Glyceraldehyde-3-phosphate dehydrogenase (Homo sapiens, UniProt P04406)
Chain of Glyceraldehyde-3-phosphate dehydrogenase (P04406 whole entry): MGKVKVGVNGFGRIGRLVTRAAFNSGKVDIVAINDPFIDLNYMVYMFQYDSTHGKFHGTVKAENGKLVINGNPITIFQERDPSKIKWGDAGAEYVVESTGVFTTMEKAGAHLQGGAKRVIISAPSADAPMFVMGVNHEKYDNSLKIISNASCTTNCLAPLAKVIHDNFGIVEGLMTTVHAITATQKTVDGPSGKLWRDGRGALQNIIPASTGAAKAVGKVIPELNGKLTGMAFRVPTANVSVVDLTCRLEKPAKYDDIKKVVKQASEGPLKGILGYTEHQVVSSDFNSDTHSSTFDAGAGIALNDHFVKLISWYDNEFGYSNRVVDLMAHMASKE

[20] = IGROV1 cell killing – plate reader, dry powder samples, PAX8 inhibitor project, dose response (AID 743043); type: functional, cell-based; conditions: IGROV-1
[21] = OVCAR-3 cell viability loss – plate reader, dry powder samples, PAX8 inhibitor project, dose response (AID 743044); type: functional, cell-based
[22] = PAX8-dependent cell viability loss – plate reader, dry powder, dose response (AID 743049); type: functional, cell-based
Paired box protein Pax-8 = Paired box protein Pax-8 (Homo sapiens, UniProt Q06710); experiment: PAX8 transcriptional activity inhibition in RMG-I – RMG-I cells, luciferase, cherry-pick, dose response (AID 687027); type: functional, cell-based;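 note: luciferase reporter driven by Pax8 target thyroperoxidase promoter measured by SteadyGlo luminescence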
Chain of Paired box protein Pax-8 (Q06710 whole entry): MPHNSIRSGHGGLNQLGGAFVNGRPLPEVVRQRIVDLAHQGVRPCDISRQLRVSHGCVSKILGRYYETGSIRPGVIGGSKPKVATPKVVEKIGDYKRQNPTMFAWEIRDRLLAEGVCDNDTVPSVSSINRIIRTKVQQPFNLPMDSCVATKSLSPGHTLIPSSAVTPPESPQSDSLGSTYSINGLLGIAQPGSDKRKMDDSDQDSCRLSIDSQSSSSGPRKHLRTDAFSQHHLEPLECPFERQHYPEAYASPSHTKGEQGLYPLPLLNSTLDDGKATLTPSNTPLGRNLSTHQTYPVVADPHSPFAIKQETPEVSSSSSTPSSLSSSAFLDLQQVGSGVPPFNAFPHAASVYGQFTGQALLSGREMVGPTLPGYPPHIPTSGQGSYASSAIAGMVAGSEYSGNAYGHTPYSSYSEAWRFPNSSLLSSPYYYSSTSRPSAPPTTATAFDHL

[23] = COV434 cell viability loss – plate reader, dry powder, SA7, cytotoxicity control for PAX8 inhibitor project, dose response (AID 743145); type: functional, cell-based
[24] = OV-90 cell viability loss – plate reader, dry powder, SA8, PAX8 inhibitor project, dose response (AID 743149); type: functional, cell-based
[25] = inhibitors acting on PAX2 in cells – cell-based, plate reader, dry powder samples, selectivity assay for PAX8 inhibitor project, dose response (AID 743048); type: functional;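 note: HEK293 cells carrying a WT1 promoter luciferase reporter driven by expressed Pax2; potency is for inhibition of Pax2 driven reporter signal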
[26] = PAX5 cellular inhibition readout – cell-based, plate reader, dry powder samples, selectivity assay for PAX8 inhibitor project, dose response (AID 743047); type: functional;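 note: HEK293 cells carrying a Pax5 driven CD19 promoter luciferase reporter; potency of inhibitors that lower reporter luminescence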

Chain of Ephrin type-A receptor 4 (Q03137 whole entry, the tested form may be a part): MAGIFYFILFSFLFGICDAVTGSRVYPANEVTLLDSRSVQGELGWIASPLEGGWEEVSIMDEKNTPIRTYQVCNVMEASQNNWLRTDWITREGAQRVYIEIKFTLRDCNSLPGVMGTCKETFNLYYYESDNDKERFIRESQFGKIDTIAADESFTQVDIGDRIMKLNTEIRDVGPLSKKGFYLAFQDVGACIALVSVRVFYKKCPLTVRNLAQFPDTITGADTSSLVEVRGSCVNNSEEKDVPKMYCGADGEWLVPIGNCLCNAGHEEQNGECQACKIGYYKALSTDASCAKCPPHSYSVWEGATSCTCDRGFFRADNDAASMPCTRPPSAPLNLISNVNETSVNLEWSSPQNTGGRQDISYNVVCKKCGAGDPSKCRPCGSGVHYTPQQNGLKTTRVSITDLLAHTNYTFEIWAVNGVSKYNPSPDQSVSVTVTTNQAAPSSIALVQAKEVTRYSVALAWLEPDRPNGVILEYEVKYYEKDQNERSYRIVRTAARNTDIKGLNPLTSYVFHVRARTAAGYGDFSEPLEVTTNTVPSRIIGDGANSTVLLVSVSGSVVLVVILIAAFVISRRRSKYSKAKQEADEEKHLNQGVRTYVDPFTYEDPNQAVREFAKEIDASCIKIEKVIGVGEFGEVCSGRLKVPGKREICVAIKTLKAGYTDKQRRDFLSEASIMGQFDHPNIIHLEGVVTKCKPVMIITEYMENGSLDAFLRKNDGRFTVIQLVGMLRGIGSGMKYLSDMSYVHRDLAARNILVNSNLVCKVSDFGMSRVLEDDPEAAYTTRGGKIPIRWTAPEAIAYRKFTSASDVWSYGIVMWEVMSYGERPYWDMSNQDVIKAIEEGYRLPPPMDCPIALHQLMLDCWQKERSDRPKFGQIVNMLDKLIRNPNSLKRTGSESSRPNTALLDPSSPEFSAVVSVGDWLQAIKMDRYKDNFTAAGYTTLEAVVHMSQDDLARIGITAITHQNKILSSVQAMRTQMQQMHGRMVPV

Compound: CN=c1cccccc1S
- IC50 [1]: > 66 µM (inactive)
- IC50 [2]: > 66 µM (inactive)
- IC50 [3]: > 100 µM (active)
- IC50 [4]: 49 µM (inactive)

Compound: O=C(/C=C/c1ccccc1F)N1CCN(S(=O)(=O)c2ccc(Br)cc2)CC1
- IC50 [5]: 0.252 µM (active)

Compound: Cc1cc(OI)c(C(C)C)cc1-c1cc(C(C)C)c(OI)cc1C [THYMOL IODIDE]
- IC50 [6]: > 40 µM (inactive)
- IC50 [7]: > 33.3 µM (inactive)
- IC50 [8]: 15.1 µM (inactive)

Compound: NC1=C(c2ccccc2)C(=O)c2ccccc2C1=O
- AC50 [11]: > 70 µM (inactive)
- AC50 [12]: > 70 µM (inactive)

Compound: O=C1C(Nc2cccc(Br)c2)=C(N2CCCC2)C(=O)c2ccccc21
- AC50 [13]: > 70 µM (inactive)
- AC50 [14]: 13.1 µM (active)
- AC50 [15]: 11.8 µM (active)

Compound: O=C(Nc1cccc(F)c1)N[C@H]1CC[C@H](CCNS(=O)(=O)c2cccc(Cl)c2)O[C@@H]1CO
- AC50 [16]: 26 µM (active)
- AC50 (HEK293): 26 µM (active)

Compound: CCc1ccc(/C=C2\SC(=S)N(CCCC(=O)N(CCO)c3ccccc3)C2=O)cc1
- AC50 [20]: 9.33 µM (active)
- AC50 [21]: 29.1 µM (active)
- AC50 [22]: 15.1 µM (active)
- AC50 (Paired box protein Pax-8): 7.65 µM (active)
- AC50 [23]: 8.05 µM (active)
- AC50 [24]: 35.1 µM (active)
- AC50 [25]: 31.9 µM (active)
- AC50 [26]: 33 µM (active)

Compound: O=C(/C=C/c1ccc(F)cc1)N1CCN(S(=O)(=O)c2cccc(Cl)c2)CC1
- IC50 [5]: 0.0115 µM (active)

Continued, in another order:

- IC50 (Ephrin type-A receptor 4): 3.15 µM (active)
Compound: Cc1ccsc1/C=C/C1=Cc2c(sc(NC(=O)CSc3nnc(N)[nH]3)c2C#N)C(C)(C)C1

- IC50 [10]: > 69.5 µM (inactive)
Compound: COC(=O)[C@H](CC(C)C)N(CCc1cn(Cc2ccccc2)nn1)S(=O)(=O)c1ccccc1Br
- IC50 [9]: > 69.5 µM (inactive)

- IC50 (Bcl-2-related protein A1 [17]): 20.8 µM (active)
- IC50 (Bcl-2-related protein A1 [18]): 15 µM (active)
- IC50 [19]: > 100 µM (not active)
Compound: CCN1CCN(C2=C(Cl)C(=O)N(c3ccc(Cl)nc3)C2=O)CC1

- IC50 (Ephrin type-A receptor 4): 5.08 µM (active)
Compound: CCCN1C(=O)/C(=C/C=C2\N(CC)c3ccccc3C2(C)C)SC1=S
